IC90 and EC50 data for 14 molecules are collected here from patent US20240199613A1 (TAKEDA PHARMACEUTICAL COMPANY LIMITED, priority 2021, published 2024).

The target in one test is T1, plasma kallikrein (Homo sapiens, UniProt P03952).
T1 construct: from tissue; host or cells: sodium citrate collected human plasma (78% final)
In words: Neat human plasma assay: contact pathway-activated (FXIIa) plasma, PFR-AMC substrate. The class given is biochemical. The conditions noted are these: citrated human plasma (78% final), 10 nM human FXIIa, 100 μM PFR-AMC, room temperature. As to the method: To analyze inhibition of plasma kallikrein in an ex vivo setting, the potency of compounds was measure in contact pathway-activated plasma assays. In a fluorogenic peptide substrate assay, test compounds dissolved in DMSO were added to sodium citrate collected human or rat plasma in a 96-well microplate. Alternatively, citrated plasma was collected from rats administered the compounds orally or by IV. 10 nM of human FXIIa (Enzyme Research Laboratories) diluted in pKal buffer (20 mM Tris-HCl, pH 7.5, 150 mM NaCl, 1 mM EDTA, 0.1% PEG-8000, and 0.1% Triton X-100) was added to the plasma, followed by the 100 μM of the profluorescent, synthetic plasma kallikrein substrate PFR-AMC (also diluted in pKal buffer). Final plasma concentration in the reaction was 78%. Fluorescence was immediately monitored by excitation/emission wavelengths of 360 nm/480 nm respectively over a period of 5 minutes in a microplate reader. The resulting linear increase in fluorescence emission (reflecting pKal proteolysis of PFR-AMC substrate) was fit to extract a proteolytic rate (fluorescent units over time), and this rate was subsequently plotted against compound inhibitor concentration. Resulting plots were fit to a standard 4-parameter IC50/IC90 equation to determine min/max values, IC50/90, and slope. All experimental steps were performed at room temperature.

The target in test [1] is human activated kallikrein enzyme (Homo sapiens, UniProt P03952). The experiment in a line: Inhibition of activated plasma kallikrein, fluorogenic peptide substrate (PFR-AMC) assay, 500 pM enzyme format. The conditions noted are these: 500 pM activated kallikrein, 300 uM PFR-AMC, 30 min preincubation, 10 min reaction, room temperature; read-out: Primary Dose Response Assay: Average EC50. The class given is biochemical. As to the method: Compounds were evaluated for inhibition of the human activated kallikrein enzyme in two formats of an assay employing a fluorogenic peptide substrate. In one assay format, the concentrations of reagents were as follows: 20 mM Tris pH 7.5, 1 mM EDTA, 150 mM sodium chloride, 0.1% PEG-400, 0.1% Triton X-100, 500 pM activated kallikrein enzyme, 300 uM Pro-Phe-Arg-7-amido-4-methylcoumarin (PFR-AMC) substrate. Prior to reaction initiation with substrate, enzyme and inhibitors were preincubated for 30 min at room temperature. After initiation with substrate, reactions were incubated for 10 min at room temperature and fluorescence emission at 460 nm from 380 nm excitation measured with a microplate reader. In another assay format, the concentrations of reagents were as follows: 20 mM Tris pH 7.5, 1 mM EDTA, 150 mM sodium chloride, 0.1% PEG-400, 0.1% Triton X-100, 5 pM activated kallikrein enzyme, 300 uM PFR-AMC substrate. Prior to reaction initiation with substrate, enzyme and inhibitors were preincubated for 30 min at room temperature. After initiation with substrate, reactions were incubated for 18 hr at room temperature and fluorescence emission at 460 nm from 380 nm excitation measured with a microplate reader.
Table 6 provides the results of the assay in the format with 500 pM activated kallikrein assay.

T1 sequence (P03952 391-638 limits assumed): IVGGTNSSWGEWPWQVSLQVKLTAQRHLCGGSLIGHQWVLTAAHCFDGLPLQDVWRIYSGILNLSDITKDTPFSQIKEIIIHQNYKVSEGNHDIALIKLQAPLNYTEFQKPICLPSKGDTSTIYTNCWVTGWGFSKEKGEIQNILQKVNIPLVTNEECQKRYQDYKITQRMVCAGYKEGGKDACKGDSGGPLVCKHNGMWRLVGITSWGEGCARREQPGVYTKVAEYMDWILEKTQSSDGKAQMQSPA
T1 sequence (P03952 20-390 partner limits assumed): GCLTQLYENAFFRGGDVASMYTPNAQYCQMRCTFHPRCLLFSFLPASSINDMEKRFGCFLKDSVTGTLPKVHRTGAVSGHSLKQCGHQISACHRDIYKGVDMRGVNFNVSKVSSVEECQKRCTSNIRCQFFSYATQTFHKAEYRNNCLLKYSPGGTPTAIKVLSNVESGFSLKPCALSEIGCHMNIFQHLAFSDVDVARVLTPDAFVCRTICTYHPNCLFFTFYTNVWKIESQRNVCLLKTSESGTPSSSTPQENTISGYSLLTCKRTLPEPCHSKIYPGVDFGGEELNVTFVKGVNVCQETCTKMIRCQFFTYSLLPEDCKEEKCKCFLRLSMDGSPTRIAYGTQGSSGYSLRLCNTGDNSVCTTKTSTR
human activated kallikrein enzyme, sequence (P03952 391-638 limits assumed): as the sequence (P03952 391-638 limits assumed) above
human activated kallikrein enzyme, sequence (P03952 20-390 partner limits assumed): as the sequence (P03952 20-390 partner limits assumed) above

For orientation: IC90 means the concentration at which the effect reaches the 90% level. A word on the EC50: it is the concentration at which the effect is half-maximal. On plasma kallikrein, `Cc1ccnc([C@H]2C[C@@H]2c2ccc3ccc(NCc4cn5cc(C6CC6)cc(N6CC(=O)N(C7COC7)C6=O)c5n4)cc3n2)n1` (racemic) [Example 78, rac-1-(6-cyclopropyl-2-(((2-((1S*,2S*)-2-(4-methylpyrimidin-2-yl)cyclopropyl)quinolin-7-yl)amino)methyl)imidazo[1,2-a]pyridin-8-yl)-3-(oxetan-3-yl)imidazolidine-2,4-dione] showed an IC90 of 1.5 to 10 µM. In addition, the EC50 in test [1] is at most 0.001 µM.

At plasma kallikrein, `Cc1ccnc([C@H]2C[C@@H]2C2=NS(=O)(=O)c3ccc(NCc4cn5cc(C6CC6)cc(F)c5n4)cc3N2)n1` [Example 105, 6-(((6-cyclopropyl-8-fluoroimidazo[1,2-a]pyridin-2-yl)methyl)amino)-3-((1S,2S)-2-(4-methylpyrimidin-2-yl)cyclopropyl)-4H-benzo[e][1,2,4]thiadiazine 1,1-dioxide] gave an IC90 of at most 0.4 µM. Besides, the concentration for a half-maximal effect (EC50) in test [1] was at most 0.001 µM.

On plasma kallikrein, `Cc1ccnc(C2CC2c2cc(=O)c3ccc(NCc4cn5cc(C6CC6)cc(N6CC(=O)N(C)C6=O)c5n4)cc3[nH]2)n1` (single isomer, unassigned) [Example 13, 1-(6-cyclopropyl-2-(((2-(2-(4-methylpyrimidin-2-yl)cyclopropyl)-4-oxo-1,4-dihydroquinolin-7-yl)amino)methyl)imidazo[1,2-a]pyridin-8-yl)-3-methylimidazolidine-2,4-dione] had an IC90 of at most 0.4 µM. The EC50 in test [1] was 0.001 to 0.01 µM.

`COc1cc([C@H]2C[C@@H]2c2nccc(C)n2)nc2cc(NCc3cn4cc(C5CC5)ccc4n3)ccc12` (racemic) [Example 20, rac-N-((6-cyclopropylimidazo[1,2-a]pyridin-2-yl)methyl)-4-methoxy-2-((1S*,2S*)-2-(4-methylpyrimidin-2-yl)cyclopropyl)quinolin-7-amine]: at plasma kallikrein, the IC90 lay within 10 to 22 µM. The EC50 in test [1] fell in the range of 0.001 to 0.01 µM.

For the molecule `Cc1ccnc([C@H]2C[C@@H]2c2cc(N3CCS(=O)(=O)CC3)c3ccc(NCc4cn5cc(C6CC6)cc(N6CC(=O)N(C)C6=O)c5n4)cc3n2)n1` [Example 37, 1-(6-cyclopropyl-2-(((4-(1,1-dioxidothiomorpholino)-2-((1S,2S)-2-(4-methylpyrimidin-2-yl)cyclopropyl)quinolin-7-yl)amino)methyl)imidazo[1,2-a]pyridin-8-yl)-3-methylimidazolidine-2,4-dione], the IC90 against plasma kallikrein is at most 0.4 µM. Besides, the EC50 in test [1] was at most 0.001 µM.

At plasma kallikrein, `CN1C(=O)CN(c2cc(C3CC3)cn3cc(CNc4ccc5c(=O)cc([C@H]6C[C@@H]6c6cccc(Cl)c6)[nH]c5c4)nc23)C1=O` (racemic) [Example 5, rac-1-(2-(((2-((1S*,2S*)-2-(3-chlorophenyl)cyclopropyl)-4-oxo-1,4-dihydroquinolin-7-yl)amino)methyl)-6-cyclopropylimidazo[1,2-a]pyridin-8-yl)-3-methylimidazolidine-2,4-dione] gave an IC90 of 1.5 to 10 µM. Also, the EC50 in test [1] was 0.001 to 0.01 µM.

`Cc1ccnc([C@H]2C[C@@H]2c2cc(N3CC4(COC4)C3)c3cnc(OCc4cn5cc(C6CC6)cc(N6CC(=O)N(C)C6=O)c5n4)cc3n2)n1` [Example 103, 1-(6-cyclopropyl-2-(((2-((1S,2S)-2-(4-methylpyrimidin-2-yl)cyclopropyl)-4-(2-oxa-6-azaspiro[3.3]heptan-6-yl)-1,6-naphthyridin-7-yl)oxy)methyl)imidazo[1,2-a]pyridin-8-yl)-3-methylimidazolidine-2,4-dione] showed an IC90 against plasma kallikrein of at most 0.4 µM. Further, the EC50 in test [1] was at most 0.001 µM.

Take `COc1cc([C@H]2C[C@@H]2c2nccc(C)n2)nc2cc(NCc3cn4cc(C5CC5)cc(N5CC(=O)N(C)C5=O)c4n3)ccc12` (racemic) [Example 21, rac-1-(6-cyclopropyl-2-(((4-methoxy-2-((1S*,2S*)-2-(4-methylpyrimidin-2-yl)cyclopropyl)quinolin-7-yl)amino)methyl)imidazo[1,2-a]pyridin-8-yl)-3-methylimidazolidine-2,4-dione]: the IC90 on plasma kallikrein fell in the range of 1.5 to 10 µM. Further, the EC50 in test [1] was at most 0.001 µM.

Regarding `Cc1ccnc([C@H]2C[C@@H]2c2nc(=O)c3ccc(NCc4cn5cc(C6CC6)cc(N6CC(=O)N(C)C6=O)c5n4)cc3[nH]2)n1` (racemic) [Example 8, rac-1-(6-cyclopropyl-2-(((2-((1S*,2S*)-2-(4-methylpyrimidin-2-yl)cyclopropyl)-4-oxo-1,4-dihydroquinazolin-7-yl)amino)methyl)imidazo[1,2-a]pyridin-8-yl)-3-methylimidazolidine-2,4-dione], at plasma kallikrein, the IC90 fell in the range of 1.5 to 10 µM. In test [1], the concentration giving a half-maximal response (EC50) is at most 0.001 µM.

For the molecule `Cc1ccnc([C@H]2C[C@@H]2c2cc(O)c3ccc(N4C[C@@H](O)C[C@@H]4c4cn5cc(C6CC6)ccc5n4)cc3n2)n1` (relative stereo) [Example 54, rac-7-((2R,4S)-2-(6-cyclopropylimidazo[1,2-a]pyridin-2-yl)-4-hydroxypyrrolidin-1-yl)-2-((1S*,2S*)-2-(4-methylpyrimidin-2-yl)cyclopropyl)quinolin-4-ol], the IC90 against plasma kallikrein lay within 1.5 to 10 µM. Further, the EC50 in test [1] is 0.001 to 0.01 µM.

On plasma kallikrein, `Cc1ccnc([C@H]2C[C@@H]2c2cc(OC3CCN(C)CC3)c3ccc(NCc4cn5cc(C6CC6)cc(N6CC(=O)N(C)C6=O)c5n4)cc3n2)n1` (racemic) [Example 35, rac-1-(6-cyclopropyl-2-(((4-((1-methylpiperidin-4-yl)oxy)-2-((1S*,2S*)-2-(4-methylpyrimidin-2-yl)cyclopropyl)quinolin-7-yl)amino)methyl)imidazo[1,2-a]pyridin-8-yl)-3-methylimidazolidine-2,4-dione] came in with an IC90 of at most 0.4 µM. The EC50 in test [1] is at most 0.001 µM.

On plasma kallikrein, `Cc1ccnc([C@H]2C[C@@H]2c2cc(N3CCC3)c3ccc(NCc4cn5cc(C6CC6)cc(N6CC(=O)N(C)C6=O)c5n4)cc3n2)n1` [Example 30, 1-(2-(((4-(azetidin-1-yl)-2-((1S,2S)-2-(4-methylpyrimidin-2-yl)cyclopropyl)quinolin-7-yl)amino)methyl)-6-cyclopropylimidazo[1,2-a]pyridin-8-yl)-3-methylimidazolidine-2,4-dione] had an IC90 of at most 0.4 µM. For the same molecule, in test [1], the EC50 is at most 0.001 µM.

`Cc1ccnc([C@H]2C[C@@H]2c2cc(=O)c3ccc(NCc4cn5cc(C6CC6)cc(N6CC(=O)N(C)C6=O)c5n4)cc3[nH]2)n1` (racemic) [Example 11, rac-1-(6-cyclopropyl-2-(((2-((1S*,2S*)-2-(4-methylpyrimidin-2-yl)cyclopropyl)-4-oxo-1,4-dihydroquinolin-7-yl)amino)methyl)imidazo[1,2-a]pyridin-8-yl)-3-methylimidazolidine-2,4-dione] came in with an IC90 against plasma kallikrein of 0.4 to 1.5 µM. For the same molecule, the EC50 in test [1] was at most 0.001 µM.

`Cc1ccnc([C@H]2C[C@@H]2c2ccc3ccc(N4C[C@@H](O)C[C@@H]4c4cn5cc(C6CC6)cc(N6CC(=O)N(C)C6=O)c5n4)cc3n2)n1` (relative stereo) [Example 68, rac-1-(6-cyclopropyl-2-((2R,4S)-4-hydroxy-1-(2-((1S*,2S*)-2-(4-methylpyrimidin-2-yl)cyclopropyl)quinolin-7-yl)pyrrolidin-2-yl)imidazo[1,2-a]pyridin-8-yl)-3-methylimidazolidine-2,4-dione]: the IC90 against plasma kallikrein lay within 1.5 to 10 µM. Moreover, the EC50 in test [1] was 0.001 to 0.01 µM.
